Assay results from patent publication US20250263370A1 (Tay Therapeutics Limited, priority 2022, published 2025).
Values joined by “and” are separate entries in the source; they are usually repeats but may differ in a detail not shown here. Equal values may be shown once.

Tested on: collagen-induced arthritis
Experiment: Collagen-induced arthritis (CIA) model in rats: body weight, paw volume, clinical scores, clinical observations; on Average detailed clinical score, left hind limb: key of the grades not given here; on Average detailed clinical score, right hind limb: key of the grades not given here; on Detailed Clinical Scores, left forelimb: key of the grades not given here; on Detailed Clinical Scores, left hind limb: key of the grades not given here; on Detailed Clinical Scores, right forelimb: key of the grades not given here; on Detailed Clinical Scores, right hind limb: key of the grades not given here; on Detailed Clinical Scores, score: key of the grades not given here; on Detailed Clinical Scores: left forelimb: key of the grades not given here; on Detailed Clinical Scores: left hind limb: key of the grades not given here; on Detailed Clinical Scores: right forelimb: key of the grades not given here; on Detailed Clinical Scores: right hind limb: key of the grades not given here; on Detailed Clinical Scores: score: key of the grades not given here; on Mean overall clinical score ± SD: key of the grades not given here; on overall clinical score: key of the grades not given here
Details: for Average detailed clinical score, right hind limb / Average detailed clinical score, score / Mean overall clinical score ± SD / Overall clinical score / Average detailed clinical score, left forelimb / Average detailed clinical score, left hind limb / Average detailed clinical score, right forelimb / Detailed Clinical Scores, left forelimb / Detailed Clinical Scores, left hind limb / Detailed Clinical Scores, right forelimb / Detailed Clinical Scores, right hind limb / Detailed Clinical Scores, score / Detailed Clinical Scores: left forelimb / Detailed Clinical Scores: left hind limb / Detailed Clinical Scores: right forelimb / Detailed Clinical Scores: right hind limb / Detailed Clinical Scores: score: CIA rats; for Overall clinical score: individual animals #1-8; for Mean animal paw volume ± SD: group mean; for Detailed Clinical Scores, left forelimb / Detailed Clinical Scores, left hind limb / Detailed Clinical Scores, right forelimb / Detailed Clinical Scores, right hind limb / Detailed Clinical Scores, score / Detailed Clinical Scores: left forelimb / Detailed Clinical Scores: left hind limb / Detailed Clinical Scores: right forelimb / Detailed Clinical Scores: right hind limb / Detailed Clinical Scores: score: individual animals ID 1-8; for Animal paw volume percent change: individual animals
Procedure: Prior to be randomly placed in treatment groups, animals were weighed, and paw volume was measured. Once randomly assigned to treatment groups, on Day 0, animals in groups 2-9 were immunized by subcutaneous injection at the base of the tail.
The immunization comprised 100 μL of the CFA+Collagen emulsion (prepared according to the method in Experimental Method A). Animals in group one received no immunization. Seven days after the first injection, animals in groups 2-9 received a booster immunization comprising 200 μL of the IFA+Collagen emulsion (prepared according to the method in Experimental Method A).
Starting on Day 0, animals in group 1 and 2 were administered daily doses of the vehicle per os (P.O.) for 21 days. […] The twice daily doses for animals in groups 4-9 were 8 hours apart (e.g., the first dose at 8:00 AM and the second dose at 4:00 PM).
Body weight of all animals was recorded daily for the 21-day period. Blind clinical scores on all four limbs were conducted for all animals in the study. Animals were assessed prior to receiving their first dose of the compound or control, and scores for each limb were combined to a total daily score for each animal. Clinical score assessments were performed on Day 0, 6, 12, 13, 14, 15, 18, 19, and 21 (for a total of 9 daily scores).
Paw volume was recorded for each animal on Day 0, 6, 12, 13, 14, 15, 18, 19, and 21 (for a total of 9 measurements). To measure paw volume, animals were gently held with one hand while the hind paw was placed into a plethysmometer with the other hand. Lipid displacement by the paw was recorded and used to represent paw volume.
All data measured and recorded was analyzed using SPSS 16.0 software. Groups were compared using one-way ANOVA and significance was set at p<0.05.

SMILES: CNC(=O)c1[nH]c(C(=O)NC2CCC2)cc1O[C@@H](C)c1ccccc1 (stereo in doubt) [Example 101, N^5-cyclobutyl-N^2-methyl-3-(1-phenylethoxy)-1H-pyrrole-2,5-dicarboxamide]
- Average detailed clinical score, right hind limb (Day 12, 10 mg/kg): 0.25
- Average detailed clinical score, score (Day 12, 10 mg/kg): 0.50
- Mean overall clinical score ± SD (Day 12, 10 mg/kg): 1 ± 1
- Overall clinical score (Day 12, 10 mg/kg): 1 and 0 and 2
- Average detailed clinical score, left forelimb (Day 12, 30 mg/kg): 0.00
- Average detailed clinical score, left hind limb (Day 12, 30 mg/kg): 0.00
- Average detailed clinical score, right forelimb (Day 12, 30 mg/kg): 0.00
- Average detailed clinical score, right hind limb (Day 12, 30 mg/kg): 0.13
- Average detailed clinical score, score (Day 12, 30 mg/kg): 0.13
- Mean overall clinical score ± SD (Day 12, 30 mg/kg): 0 ± 0
- Mean animal paw volume ± SD (Day 13, L paw, 3 mg/kg): 1.53 mL
- Mean animal paw volume ± SD (Day 13, L paw, 10 mg/kg): 1.52 mL
- Mean animal paw volume ± SD (Day 13, L paw, 30 mg/kg): 1.35 mL
- Mean animal paw volume ± SD (Day 13, R paw, 3 mg/kg): 1.46 mL
- Mean animal paw volume ± SD (Day 13, R paw, 10 mg/kg): 1.45 mL
- Mean animal paw volume ± SD (Day 13, R paw, 30 mg/kg): 1.37 mL
- Detailed Clinical Scores, left forelimb (Day 13, 3 mg/kg): 0
- Detailed Clinical Scores, left hind limb (Day 13, 3 mg/kg): 1 (4×) and 0 (3×) and 2
- Detailed Clinical Scores, right forelimb (Day 13, 3 mg/kg): 0 (6×) and 1 (2×)
- Detailed Clinical Scores, right hind limb (Day 13, 3 mg/kg): 0 (7×) and 1
- Detailed Clinical Scores, score (Day 13, 3 mg/kg): 1 (2×) and 2 (2×) and 0 (3×) and 3
- Detailed Clinical Scores, left forelimb (Day 13, 10 mg/kg): 0
- Detailed Clinical Scores, left hind limb (Day 13, 10 mg/kg): 2 (3×) and 0 (4×) and 1
- Detailed Clinical Scores, right forelimb (Day 13, 10 mg/kg): 0
- Detailed Clinical Scores, right hind limb (Day 13, 10 mg/kg): 1 and 0 (6×) and 2
- Detailed Clinical Scores, score (Day 13, 10 mg/kg): 3 and 0 (4×) and 4 and 2 and 1
- Detailed Clinical Scores, left forelimb (Day 13, 30 mg/kg): 0
- Detailed Clinical Scores, left hind limb (Day 13, 30 mg/kg): 0
- Detailed Clinical Scores, right forelimb (Day 13, 30 mg/kg): 0
- Detailed Clinical Scores, right hind limb (Day 13, 30 mg/kg): 1 and 0 (7×)
- Detailed Clinical Scores, score (Day 13, 30 mg/kg): 1 and 0 (7×)
- Average detailed clinical score, left forelimb (Day 13, 3 mg/kg): 0.00
- Average detailed clinical score, left hind limb (Day 13, 3 mg/kg): 0.75
- Average detailed clinical score, right forelimb (Day 13, 3 mg/kg): 0.25
- Average detailed clinical score, right hind limb (Day 13, 3 mg/kg): 0.13
- Average detailed clinical score, score (Day 13, 3 mg/kg): 1.13
- Mean overall clinical score ± SD (Day 13, 3 mg/kg): 1 ± 1
- Overall clinical score (Day 13, 3 mg/kg): 1 (2×) and 2 (2×) and 0 (3×) and 3
- Average detailed clinical score, left forelimb (Day 13, 10 mg/kg): 0.00
- Average detailed clinical score, left hind limb (Day 13, 10 mg/kg): 0.88
- Average detailed clinical score, right forelimb (Day 13, 10 mg/kg): 0.00
- Average detailed clinical score, right hind limb (Day 13, 10 mg/kg): 0.38
- Average detailed clinical score, score (Day 13, 10 mg/kg): 1.25
- Mean overall clinical score ± SD (Day 13, 10 mg/kg): 1 ± 2
- Overall clinical score (Day 13, 10 mg/kg): 3 and 0 and 4
- Average detailed clinical score, left forelimb (Day 13, 30 mg/kg): 0.00
- Average detailed clinical score, left hind limb (Day 13, 30 mg/kg): 0.00
- Average detailed clinical score, right forelimb (Day 13, 30 mg/kg): 0.00
- Average detailed clinical score, right hind limb (Day 13, 30 mg/kg): 0.13
- Average detailed clinical score, score (Day 13, 30 mg/kg): 0.13
- Mean overall clinical score ± SD (Day 13, 30 mg/kg): 0 ± 0
- Mean animal paw volume ± SD (Day 14, L paw, 3 mg/kg): 1.69 mL
- Mean animal paw volume ± SD (Day 14, L paw, 10 mg/kg): 1.70 mL
- Mean animal paw volume ± SD (Day 14, L paw, 30 mg/kg): 1.35 mL
- Mean animal paw volume ± SD (Day 14, R paw, 3 mg/kg): 1.59 mL
- Mean animal paw volume ± SD (Day 14, R paw, 10 mg/kg): 1.59 mL
- Mean animal paw volume ± SD (Day 14, R paw, 30 mg/kg): 1.37 mL
- Detailed Clinical Scores, left forelimb (Day 14, 3 mg/kg): 0
- Detailed Clinical Scores, left hind limb (Day 14, 3 mg/kg): 1 (7×) and 3
- Detailed Clinical Scores, right forelimb (Day 14, 3 mg/kg): 0 (6×) and 1 (2×)
- Detailed Clinical Scores, right hind limb (Day 14, 3 mg/kg): 1 (2×) and 0 (4×) and 2 and 3
- Detailed Clinical Scores, score (Day 14, 3 mg/kg): 2 (3×) and 4 and 1 (3×) and 6
- Detailed Clinical Scores, left forelimb (Day 14, 10 mg/kg): 0
- Detailed Clinical Scores, left hind limb (Day 14, 10 mg/kg): 3 (3×) and 4 and 0 (4×)
- Detailed Clinical Scores, right forelimb (Day 14, 10 mg/kg): 0
- Detailed Clinical Scores, right hind limb (Day 14, 10 mg/kg): 1 (3×) and 3 and 0 (4×)
- Detailed Clinical Scores, score (Day 14, 10 mg/kg): 4 (2×) and 6 and 5 and 0 (4×)
- Detailed Clinical Scores, left forelimb (Day 14, 30 mg/kg): 0
- Detailed Clinical Scores, left hind limb (Day 14, 30 mg/kg): 0
- Detailed Clinical Scores, right forelimb (Day 14, 30 mg/kg): 0
- Detailed Clinical Scores, right hind limb (Day 14, 30 mg/kg): 1 and 0 (7×)
- Detailed Clinical Scores, score (Day 14, 30 mg/kg): 1 and 0 (7×)
- Average detailed clinical score, left forelimb (Day 14, 3 mg/kg): 0.00
- Average detailed clinical score, left hind limb (Day 14, 3 mg/kg): 1.25
- Average detailed clinical score, right forelimb (Day 14, 3 mg/kg): 0.25
- Average detailed clinical score, right hind limb (Day 14, 3 mg/kg): 0.88
- Average detailed clinical score, score (Day 14, 3 mg/kg): 2.38
- Mean overall clinical score ± SD (Day 14, 3 mg/kg): 2 ± 2
- Overall clinical score (Day 14, 3 mg/kg): 2 (3×) and 4 and 1 (3×) and 6
- Average detailed clinical score, left forelimb (Day 14, 10 mg/kg): 0.00
- Average detailed clinical score, left hind limb (Day 14, 10 mg/kg): 1.63
- Average detailed clinical score, right forelimb (Day 14, 10 mg/kg): 0.00
- Average detailed clinical score, right hind limb (Day 14, 10 mg/kg): 0.75
- Average detailed clinical score, score (Day 14, 10 mg/kg): 2.38
- Mean overall clinical score ± SD (Day 14, 10 mg/kg): 2 ± 3
- Overall clinical score (Day 14, 10 mg/kg): 4 (2×) and 6
- Average detailed clinical score, left forelimb (Day 14, 30 mg/kg): 0.00
- Average detailed clinical score, left hind limb (Day 14, 30 mg/kg): 0.00
- Average detailed clinical score, right forelimb (Day 14, 30 mg/kg): 0.00
- Average detailed clinical score, right hind limb (Day 14, 30 mg/kg): 0.13
- Average detailed clinical score, score (Day 14, 30 mg/kg): 0.13
- Mean overall clinical score ± SD (Day 14, 30 mg/kg): 0 ± 0
- Mean animal paw volume ± SD (Day 15, L paw, 3 mg/kg): 1.86 mL
- Animal paw volume percent change (Day 15, L paw, 3 mg/kg): 31.80% and 28.90% and 44.87% and 22.68% and 86.59% and 50.55% and 30.34%
- Mean animal paw volume ± SD (Day 15, L paw, 10 mg/kg): 1.83 mL
- Animal paw volume percent change (Day 15, L paw, 10 mg/kg): 53.43% and 36.90% and 80.93% and 93.39% and 7.66% and 22.69%
- Mean animal paw volume ± SD (Day 15, L paw, 30 mg/kg): 1.45 mL
- Mean animal paw volume ± SD (Day 15, R paw, 3 mg/kg): 1.92 mL
- Animal paw volume percent change (Day 15, R paw, 3 mg/kg): 25.86% and 20.97% and 74.62% and 27.24% and 84.29% and 50.19% and 48.69%
- Mean animal paw volume ± SD (Day 15, R paw, 10 mg/kg): 1.75 mL
- Animal paw volume percent change (Day 15, R paw, 10 mg/kg): 37.01% and 45.42% and 94.98% and 47.10% and 6.18% and 10.73%
- Mean animal paw volume ± SD (Day 15, R paw, 30 mg/kg): 1.48 mL
- Detailed Clinical Scores: left forelimb (Day 15, 3 mg/kg): 0
- Detailed Clinical Scores: left hind limb (Day 15, 3 mg/kg): 1 (3×) and 2 (3×) and 4 and 3
- Detailed Clinical Scores: right forelimb (Day 15, 3 mg/kg): 0 (6×) and 1 (2×)
- Detailed Clinical Scores: right hind limb (Day 15, 3 mg/kg): 1 (3×) and 3 (2×) and 2 (2×) and 4
- Detailed Clinical Scores: score (Day 15, 3 mg/kg): 2 and 3 (3×) and 6 (2×) and 8 and 4
- Detailed Clinical Scores: left forelimb (Day 15, 10 mg/kg): 0
- Detailed Clinical Scores: left hind limb (Day 15, 10 mg/kg): 3 (2×) and 2 and 4 and 0 (2×) and 1 (2×)
- Detailed Clinical Scores: right forelimb (Day 15, 10 mg/kg): 0
- Detailed Clinical Scores: right hind limb (Day 15, 10 mg/kg): 2 (3×) and 4 and 0 (2×) and 1 (2×)
- Detailed Clinical Scores: score (Day 15, 10 mg/kg): 5 and 4 and 7 and 6 and 0 and 1 (2×) and 2
- Detailed Clinical Scores: left forelimb (Day 15, 30 mg/kg): 0
- Detailed Clinical Scores: left hind limb (Day 15, 30 mg/kg): 0 (6×) and 2 and 1
- Detailed Clinical Scores: right forelimb (Day 15, 30 mg/kg): 0
- Detailed Clinical Scores: right hind limb (Day 15, 30 mg/kg): 1 (2×) and 0 (5×) and 2
- Detailed Clinical Scores: score (Day 15, 30 mg/kg): 1 and 2 (3×) and 0 (4×)
- Average detailed clinical score, left forelimb (Day 15, 3 mg/kg): 0.00
